Values joined by “and” are separate entries in the source; they are usually repeats but may differ in a detail not shown here. Identical values can stand only once. Like-named read-outs stand apart in the source and are kept apart here.
Assays:
[1] = assay type: in vivo, healthy volunteers; conditions: for Tmax: both, human, plasma, oral; for AUC from time zero to time t (AUCt) decrease: data not shown
[2] = assay type: in vivo, healthy volunteers; conditions: for change in exposures: with any of the coadministered medications, apart from stated exceptions
[3] = test system: CYP enzymes, OCT1/OCT2, MATE 1, glucuronidation; conditions: cited from earlier work
[4] = coadministered with the 3D regimen; cited from earlier work
[5] = coadministration with ritonavir; cited from earlier work
[6] = Safety and tolerability assessments in the phase I studies; assay type: in vivo, healthy subjects; conditions: carisoprodol arm
[7] = in the presence of the 3D regimen
[8] = upon coadministration with the 3D regimen
[9] = alone and with the 3D regimen (not affected / similar)
[10] = coadministration with the 3D regimen

SMILES: CCCC(C)(COC(N)=O)COC(N)=O [Meprobamate]
- Tmax [1]: 3 to 4 h
- AUC change (increase or decrease) [1, 7]: < 20%
- Cmax change (increase or decrease) [1, 7]: < 20%

SMILES: COC(=O)N[C@H](C(=O)N1CCC[C@H]1C(=O)Nc1ccc([C@@H]2CC[C@@H](c3ccc(NC(=O)[C@@H]4CCCN4C(=O)[C@@H](NC(=O)OC)C(C)C)cc3)N2c2ccc(C(C)(C)C)cc2)cc1)C(C)C [Ombitasvir]
- change in (other) exposure parameters ([2]; in the presence of SMZ/TMP): < 20%
- change in exposures [2]: ≤ 25%

SMILES: CC(=O)Nc1ccc(O)cc1 [Acetaminophen]
- Metabolic pathway [3]: Glucuronidation

SMILES: COc1ccc2[nH]c([S+]([O-])Cc3ncc(C)c(OC)c3C)nc2c1 (stereo not shown) [omeprazole]
- exposures decrease [4]: ~ 40%

SMILES: COc1cc(Cc2cnc(N)nc2N)cc(OC)c1OC [Trimethoprim]
- increase in AUC [5]: 20%
- AUC increase [1, 7]: 22%
- Ctrough increase [1, 7]: 25%
- changes in exposures (Cmax and AUC geometric mean ratios) [1, 8]: ≤ 25%
- exposures increase [1, 8]: ≤ 20%
- Metabolic pathway [3]: Weak to moderate CYP2C8 inhibitor; weak OCT2 inhibitor; MATE 1 inhibitor

SMILES: CC(C)c1nc(CN(C)C(=O)N[C@H](C(=O)N[C@@H](Cc2ccccc2)C[C@H](O)[C@H](Cc2ccccc2)NC(=O)OCc2cncs2)C(C)C)cs1 [Ritonavir]
- change in (other) exposure parameters ([2]; in the presence of SMZ/TMP): < 20%
- change in exposures [2]: ≤ 25%

SMILES: CN(C)C(=N)N=C(N)N [Metformin]
- median tmax [1, 9]: 4.0 h
- Cmax decrease [1, 7]: 23%
- AUC decrease [1, 7]: < 20% and 10%
- Metabolic pathway [3]: OCT1/OCT2 substrate

SMILES: CN(C)CCC=C1c2ccccc2C=Cc2ccccc21 [Cyclobenzaprine]
- median tmax [1, 9]: 5.0 h
- Cmax decrease [1, 7]: 32%
- AUC decrease [1, 7]: 40%
- exposures decrease [1, 8]: up to 46%
- exposures decrease ([1]; upon coadministration with the 3D regimen, listed as cyclobenzaprine): ≤ 40%
- Metabolic pathway [3]: CYP3A4, 1A2, and 2D6 substrate

SMILES: Cc1cnc(C(=O)N[C@H]2CCCCC/C=C\[C@@H]3C[C@@]3(C(=O)NS(=O)(=O)C3CC3)NC(=O)[C@@H]3C[C@@H](Oc4nc5ccccc5c5ccccc45)CN3C2=O)cn1 [Paritaprevir]
- Tmax ([2]; both, human, plasma, oral, median tmax, in the presence of metformin): 5.5 h
- Cmax decrease ([2]; in the presence of SMZ/TMP): 22%
- change in (other) exposure parameters ([2]; in the presence of SMZ/TMP): < 20%
- change in exposures [2]: ≤ 25%
- Cmax decrease ([2]; with metformin): 37%
- Ctrough increase ([2]; with metformin): 22%

SMILES: O=C1CN=C(c2ccccc2)c2cc(Cl)ccc2N1 [Nordiazepam]
- Tmax [1]: 48 h
- Tmax ([1]; 2 mg): 96 h
- Cmax increase [1, 7]: 10% and < 20%
- proportion of AUC extrapolated after the last measurable timepoint ([1]; with the 3D regimen): 20%
- AUC from time zero to time t (AUCt) decrease ([1]; with the 3D regimen): 3%
- proportion of AUC extrapolated after the last measurable timepoint ([1]; without the 3D regimen): 46%

SMILES: COc1ccc2c3c1O[C@H]1C(=O)CC[C@H]4[C@@H](C2)N(C)CC[C@]314 [Hydrocodone]
- Tmax [1]: 2 h
- AUC increase [1, 7]: 90%
- Cmax increase [1, 7]: 27%

SMILES: CNCCC=C1c2ccccc2C=Cc2ccccc21 [Norcyclobenzaprine]
- harmonic mean t½ [1, 10]: 53 h
- median tmax [1, 10]: 24 h
- Cmax change (increase or decrease) [1, 7]: < 20%
- AUC decrease [1, 7]: 26%
- harmonic mean t½ ([1]; medication alone): 86 h
- median tmax ([1]; medication alone): 36 h
- proportion of AUC extrapolated after the last measurable timepoint ([1]; with the 3D regimen): 21%
- AUC from time zero to time t (AUCt) decrease ([1]; with the 3D regimen): 7%
- proportion of AUC extrapolated after the last measurable timepoint ([1]; without the 3D regimen): 42%

SMILES: COc1c(-c2ccc3cc(NS(C)(=O)=O)ccc3c2)cc(-n2ccc(=O)[nH]c2=O)cc1C(C)(C)C [Dasabuvir]
- AUC increase ([2]; in the presence of SMZ/TMP): 33%
- change in (other) exposure parameters ([2]; in the presence of SMZ/TMP): < 20%
- exposures increase ([2]; in the presence of SMZ/TMP): ≤ 33%
- change in exposures [2]: ≤ 25%

SMILES: CCCC(C)(COC(N)=O)COC(=O)NC(C)C (stereo not shown) [Carisoprodol]
- subjects reporting somnolence [6]: five
- Tmax [1]: 2 h
- Cmax decrease [1, 7]: 46%
- exposures decrease [1, 8]: ≤ 46%

SMILES: COc1c(-c2ccc3cc(NS(C)(=O)=O)ccc3c2)cc(-n2ccc(=O)[nH]c2=O)cc1C(C)(C)CO [dasabuvir M1]
- exposures decrease ([2]; in the presence of SMZ/TMP, data not shown): ≤ 19%

— paper PMC4933729 (Clinical Pharmacokinetics, 2016)
